Experimental data as given in PubChem BioAssay (NCI).
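Growth conditions: 96-well plates. Treatment: test compound, 48 hours, 5 concentrations. Analysis: linear interpolation between bracketing concentrations; unreached endpoints set to highest concentration. Here, GI50 denotes the concentration required for 50% inhibition of growth. TGI: concentration producing complete growth inhibition.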

What was measured:
Assay in all cases: NCI tumour cell line growth inhibition, 48 h
786-0 renal = tested on: 786-0 renal
A498 renal = tested on: A498 renal
A549 NSCLC = tested on: A549 NSCLC
ACHN renal = tested on: ACHN renal
BT-549 breast = tested on: BT-549 breast
CAKI-1 renal = tested on: CAKI-1 renal
CCRF-CEM leukemia = tested on: CCRF-CEM leukemia
COLO 205 colon = tested on: COLO 205 colon
DU-145 prostate = tested on: DU-145 prostate
EKVX NSCLC = tested on: EKVX NSCLC
HCC-2998 colon = tested on: HCC-2998 colon
HCT-116 colon = tested on: HCT-116 colon
HCT-15 colon = tested on: HCT-15 colon
HL-60(TB) leukemia = tested on: HL-60(TB) leukemia
HOP-62 NSCLC = tested on: HOP-62 NSCLC
HOP-92 NSCLC = tested on: HOP-92 NSCLC
HS 578T breast = tested on: HS 578T breast
HT29 colon = tested on: HT29 colon
IGROV1 ovarian = tested on: IGROV1 ovarian
K-562 leukemia = tested on: K-562 leukemia
KM12 colon = tested on: KM12 colon
LOX IMVI melanoma = tested on: LOX IMVI melanoma
M14 melanoma = tested on: M14 melanoma
MALME-3M melanoma = tested on: MALME-3M melanoma
MDA-MB-231 breast = tested on: MDA-MB-231 breast
MDA-MB-435 = tested on: MDA-MB-435
MOLT-4 leukemia = tested on: MOLT-4 leukemia
NCI-H226 lung = tested on: NCI-H226 lung
NCI-H23 lung = tested on: NCI-H23 lung
NCI-H460 lung = tested on: NCI-H460 lung
NCI-H522 lung = tested on: NCI-H522 lung
NCI/ADR-RES ovarian = tested on: NCI/ADR-RES ovarian
OVCAR-3 ovarian = tested on: OVCAR-3 ovarian
OVCAR-4 ovarian = tested on: OVCAR-4 ovarian
OVCAR-5 ovarian = tested on: OVCAR-5 ovarian
OVCAR-8 ovarian = tested on: OVCAR-8 ovarian
PC-3 prostate = tested on: PC-3 prostate
RPMI-8226 leukemia = tested on: RPMI-8226 leukemia
RXF 393 renal = tested on: RXF 393 renal
SF-268 CNS = tested on: SF-268 CNS
SF-295 CNS = tested on: SF-295 CNS
SF-539 CNS = tested on: SF-539 CNS
SK-MEL-2 melanoma = tested on: SK-MEL-2 melanoma
SK-MEL-28 melanoma = tested on: SK-MEL-28 melanoma
SK-MEL-5 melanoma = tested on: SK-MEL-5 melanoma
SK-OV-3 ovarian = tested on: SK-OV-3 ovarian
SN12C renal = tested on: SN12C renal
SNB-19 CNS = tested on: SNB-19 CNS
SNB-75 CNS = tested on: SNB-75 CNS
SR leukemia = tested on: SR leukemia
SW-620 colon = tested on: SW-620 colon
T-47D breast = tested on: T-47D breast
TK-10 renal = tested on: TK-10 renal
U251 CNS = tested on: U251 CNS
UACC-257 melanoma = tested on: UACC-257 melanoma
UACC-62 melanoma = tested on: UACC-62 melanoma
UO-31 renal = tested on: UO-31 renal
MCF7 breast = tested on: MCF7 breast

For `O=C1C=C(SCCO)C(=O)c2ccccc21`, the GI50 (786-0 renal) was 2.27 µM, the TGI (786-0 renal) was 6.46 µM and the GI50 (A498 renal) was 13.9 µM. For the same compound, the TGI (A498 renal) was 27 µM, the GI50 (A549 NSCLC) was 2.24 µM and the TGI (A549 NSCLC) was 4.59 µM. It also gave a GI50 (ACHN renal) of 1.54 µM, a TGI (ACHN renal) of 2.87 µM and a GI50 (BT-549 breast) of 1.55 µM. It also gave a TGI (BT-549 breast) of 2.98 µM, a GI50 (CAKI-1 renal) of 2.08 µM and a TGI (CAKI-1 renal) of 6.97 µM. The GI50 (CCRF-CEM leukemia) was 1.14 µM, the TGI (CCRF-CEM leukemia) was 4.79 µM and the GI50 (COLO 205 colon) was 2.11 µM. It also gave a TGI (COLO 205 colon) of 4.29 µM, a GI50 (DU-145 prostate) of 1.71 µM and a TGI (DU-145 prostate) of 3.09 µM. It also gave a GI50 (EKVX NSCLC) of 1.46 µM, a TGI (EKVX NSCLC) of 3.33 µM and a GI50 (HCC-2998 colon) of 2.78 µM. It also gave a TGI (HCC-2998 colon) of 6.8 µM, a GI50 (HCT-116 colon) of 1.8 µM and a TGI (HCT-116 colon) of 3.68 µM. The GI50 (HCT-15 colon) was 1.91 µM, the TGI (HCT-15 colon) was 3.9 µM and the GI50 (HL-60(TB) leukemia) was 0.451 µM. For the same compound, the TGI (HL-60(TB) leukemia) was 2.46 µM, the GI50 (HOP-62 NSCLC) was 1.7 µM and the TGI (HOP-62 NSCLC) was 3.55 µM. For the same compound, the GI50 (HOP-92 NSCLC) was 1.3 µM, the TGI (HOP-92 NSCLC) was 3.01 µM and the GI50 (HS 578T breast) was 2.21 µM. It also gave a TGI (HS 578T breast) of 7.5 µM, a GI50 (HT29 colon) of 2.58 µM and a TGI (HT29 colon) of 6.73 µM. The GI50 (IGROV1 ovarian) was 3.61 µM, the TGI (IGROV1 ovarian) was 14.7 µM and the GI50 (K-562 leukemia) was 1.28 µM. For the same compound, the TGI (K-562 leukemia) was 4.25 µM, the GI50 (KM12 colon) was 2.61 µM and the TGI (KM12 colon) was 9.86 µM. It also gave a GI50 (LOX IMVI melanoma) of 1.53 µM, a TGI (LOX IMVI melanoma) of 3.26 µM and a GI50 (M14 melanoma) of 1.78 µM. The TGI (M14 melanoma) was 3.36 µM, the GI50 (MALME-3M melanoma) was 1.81 µM and the TGI (MALME-3M melanoma) was 3.29 µM. It also gave a GI50 (MDA-MB-231 breast) of 1.42 µM, a TGI (MDA-MB-231 breast) of 3.89 µM and a GI50 (MDA-MB-435) of 1.34 µM. For the same compound, the TGI (MDA-MB-435) was 2.65 µM, the GI50 (MOLT-4 leukemia) was 1.26 µM and the TGI (MOLT-4 leukemia) was 4.51 µM. The GI50 (NCI-H226 lung) was 16.3 µM, the TGI (NCI-H226 lung) was 36.6 µM and the GI50 (NCI-H23 lung) was 1.49 µM. For the same compound, the TGI (NCI-H23 lung) was 3.42 µM, the GI50 (NCI-H460 lung) was 1.84 µM and the TGI (NCI-H460 lung) was 3.59 µM. For the same compound, the GI50 (NCI-H522 lung) was 1.89 µM, the TGI (NCI-H522 lung) was 3.97 µM and the GI50 (NCI/ADR-RES ovarian) was 2.16 µM. The TGI (NCI/ADR-RES ovarian) was 5.82 µM, the GI50 (OVCAR-3 ovarian) was 1.37 µM and the TGI (OVCAR-3 ovarian) was 2.68 µM. For the same compound, the GI50 (OVCAR-4 ovarian) was 1.42 µM, the TGI (OVCAR-4 ovarian) was 2.75 µM and the GI50 (OVCAR-5 ovarian) was 4.92 µM. The TGI (OVCAR-5 ovarian) was 21.4 µM, the GI50 (OVCAR-8 ovarian) was 2.89 µM and the TGI (OVCAR-8 ovarian) was 10.8 µM. The GI50 (PC-3 prostate) was 2.45 µM, the TGI (PC-3 prostate) was 8.89 µM and the GI50 (RPMI-8226 leukemia) was 2.09 µM. It also gave a TGI (RPMI-8226 leukemia) of 5 µM, a GI50 (RXF 393 renal) of 1.64 µM and a TGI (RXF 393 renal) of 3.01 µM. For the same compound, the GI50 (SF-268 CNS) was 1.92 µM, the TGI (SF-268 CNS) was 5.07 µM and the GI50 (SF-295 CNS) was 1.62 µM. It also gave a TGI (SF-295 CNS) of 3 µM, a GI50 (SF-539 CNS) of 1.65 µM and a TGI (SF-539 CNS) of 3.03 µM. It also gave a GI50 (SK-MEL-2 melanoma) of 1.94 µM, a TGI (SK-MEL-2 melanoma) of 3.91 µM and a GI50 (SK-MEL-28 melanoma) of 2.01 µM. For the same compound, the TGI (SK-MEL-28 melanoma) was 4.02 µM, the GI50 (SK-MEL-5 melanoma) was 1.61 µM and the TGI (SK-MEL-5 melanoma) was 2.97 µM. For the same compound, the GI50 (SK-OV-3 ovarian) was 3.97 µM, the TGI (SK-OV-3 ovarian) was 16.3 µM and the GI50 (SN12C renal) was 1.58 µM. For the same compound, the TGI (SN12C renal) was 3.04 µM, the GI50 (SNB-19 CNS) was 1.9 µM and the TGI (SNB-19 CNS) was 4.18 µM. It also gave a GI50 (SNB-75 CNS) of 1.37 µM, a TGI (SNB-75 CNS) of 2.68 µM and a GI50 (SR leukemia) of 2.17 µM. It also gave a TGI (SR leukemia) of 5.75 µM, a GI50 (SW-620 colon) of 1.85 µM and a TGI (SW-620 colon) of 3.73 µM. For the same compound, the GI50 (T-47D breast) was 1.47 µM, the TGI (T-47D breast) was 4.1 µM and the GI50 (TK-10 renal) was 2.75 µM. The TGI (TK-10 renal) was 6.2 µM, the GI50 (U251 CNS) was 1.76 µM and the TGI (U251 CNS) was 3.25 µM. The GI50 (UACC-257 melanoma) was 1.96 µM, the TGI (UACC-257 melanoma) was 3.41 µM and the GI50 (UACC-62 melanoma) was 1.6 µM. For the same compound, the TGI (UACC-62 melanoma) was 3.04 µM, the GI50 (UO-31 renal) was 1.24 µM and the TGI (UO-31 renal) was 2.49 µM.
`[N-]=N[N+]#I1OC(C(F)(F)F)(C(F)(F)F)c2ccccc21` showed a TGI (786-0 renal) of 31.6 µM, a TGI (A498 renal) of 31.8 µM and a TGI (A549 NSCLC) of 39.2 µM. It also gave a TGI (ACHN renal) of 29.1 µM, a TGI (CAKI-1 renal) of 20.9 µM and a TGI (CCRF-CEM leukemia) of 47.2 µM. For the same compound, the TGI (COLO 205 colon) was 27 µM, the TGI (DU-145 prostate) was 38 µM and the TGI (EKVX NSCLC) was 34 µM. It also gave a TGI (HCC-2998 colon) of 31.8 µM, a TGI (HCT-116 colon) of 38.2 µM and a TGI (HCT-15 colon) of 21.2 µM. The TGI (HL-60(TB) leukemia) was 30.6 µM, the TGI (HOP-62 NSCLC) was 28.4 µM and the TGI (HOP-92 NSCLC) was 27 µM. The TGI (HS 578T breast) was 37.3 µM, the TGI (HT29 colon) was 35.3 µM and the TGI (IGROV1 ovarian) was 32.7 µM. The TGI (K-562 leukemia) was > 100 µM, the TGI (KM12 colon) was 29 µM and the TGI (LOX IMVI melanoma) was 77.1 µM. The TGI (M14 melanoma) was > 100 µM, the TGI (MCF7 breast) was 27.3 µM and the TGI (MDA-MB-231 breast) was 29 µM. The TGI (MDA-MB-435) was 34.2 µM, the TGI (MOLT-4 leukemia) was 59.2 µM and the TGI (NCI-H226 lung) was 54.1 µM. For the same compound, the TGI (NCI-H23 lung) was 36.8 µM, the TGI (NCI-H522 lung) was 30.5 µM and the TGI (NCI/ADR-RES ovarian) was 45.4 µM. It also gave a TGI (OVCAR-3 ovarian) of 27.8 µM, a TGI (OVCAR-4 ovarian) of 28.9 µM and a TGI (OVCAR-5 ovarian) of 28.5 µM. For the same compound, the TGI (OVCAR-8 ovarian) was 34.5 µM, the TGI (PC-3 prostate) was 30.1 µM and the TGI (RPMI-8226 leukemia) was 51.8 µM. For the same compound, the TGI (RXF 393 renal) was 30.7 µM, the TGI (SF-268 CNS) was 27.9 µM and the TGI (SF-295 CNS) was 31.2 µM. The TGI (SF-539 CNS) was 30.6 µM, the TGI (SK-MEL-2 melanoma) was 32 µM and the TGI (SK-MEL-28 melanoma) was 28.9 µM. It also gave a TGI (SK-MEL-5 melanoma) of 4.36 µM, a TGI (SK-OV-3 ovarian) of 58.8 µM and a TGI (SN12C renal) of 30 µM. For the same compound, the TGI (SNB-19 CNS) was > 100 µM, the TGI (SNB-75 CNS) was 32.5 µM and the TGI (SR leukemia) was 68.3 µM. It also gave a TGI (SW-620 colon) of 40 µM, a TGI (T-47D breast) of 27.7 µM and a TGI (TK-10 renal) of 32 µM. The TGI (U251 CNS) was 33.8 µM, the TGI (UACC-257 melanoma) was 75.9 µM and the TGI (UACC-62 melanoma) was 47.8 µM. It also gave a TGI (UO-31 renal) of 23.7 µM.
